# Test results reported in patent US20040067998A1, “Antifungal and/or antiparasitic pharmaceutical composition and novel indole derivatives as active principle of such a composition” (priority 2003, published 2004).
# Where “and” joins values, the source holds several entries; their conditions need not be identical. Equal values may be shown once. Read-outs that look alike come from different tables or passages of the source.
# Tests used:
# Format in all cases: cell-based
# [1] = tested on: promastigote stage of Leishmania mexicana; assay: Antiparasitic activity on the promastigote form of Leishmania (MTT); conditions: for IC50: read-out: CI50 Leishmania mexicana Promastigotes
# [2] = tested on: Candida albicans (strain n° CA980001); assay: Antifungal activity on a clinical strain of Candida albicans (MTT colorimetric microplate test); conditions: for CMI or CI80 Candida albicans (CA980001) / MIC: strain CA980001; for activity of inhibition of Candida albicans (in words): summary of Tables 27 to 40; for MIC: read-out: CMI or CI80 Candida albicans (CA980001)
# [3] = tested on: Aspergillus fumigatus (strain n°AF 980003); assay: Antifungal activity on a clinical strain of Aspergillus fumigatus (Alamar Blue microplate test); conditions: for MIC / CMI or CI80 Aspergillus fumigatus (AF980003): strain AF980003; for MIC: read-out: CMI or CI80 Aspergillus fumigatus (AF980003); for activity against Aspergillus fumigatus (in words): summary of Tables 27 to 40
# [4] = promastigotes, 36 h at 26° C., MTT
# [5] = Leishmania mexicana, promastigotes, 36 h at 26° C., MTT
# [6] = Candida albicans, 24 h at 37° C., MTT
# [7] = Aspergillus fumigatus, Alamar Blue
smiles,measurement,setting,value
Fc1ccc(C(C(n2ccc3ccccc32)n2nnc3ccccc32)n2ccnc2)cc1 (mixture of isomers) [compound 83],CI50 Leishmania mexicana Promastigotes,[1],1.85 ± 0.03 µg/mL
same,IC50,[1],4.4 ± 0.07 µM
same,CMI or CI80 Candida albicans (CA980001),[2],55 ± 5 μM and 23 ± 2 μg/mL
same,MIC,[3],>100 µM
CCN1CCc2cccc(C(c3cccc(Cl)c3)n3ccnc3)c21 (racemic) [compound 48],activity against Leishmania mexicana (in words),[1],strong activity
same,CI50 Leishmania mexicana Promastigotes,[1]; [4],1 ± 0.3 µg/mL
same,IC50,[1]; [4],3 ± 1 µM
same,CMI or CI80 Candida albicans (CA980001),"[2]; 24 h at 37° C., MTT",0.06 ± 0.01 μM and 0.02 ± 0.01 μg/ml
same,activity of inhibition of Candida albicans (in words),[2],most active
same,CMI or CI80 Aspergillus fumigatus (AF980003),[3]; Alamar Blue,58 ± 4 μM and 26 ± 2 μg/ml
same,activity against Aspergillus fumigatus (in words),[3],strong activity
Fc1ccc(Cn2c(Cn3ccnc3)cc3ccccc32)cc1.O=[N+]([O-])O [3n],CMI or CI80 Candida albicans (CA980001),"[2]; 24 h at 37° C., MTT",16 ± 6 μM and 6 ± 2 μg/ml
CC(C)(C)c1ccc(Cn2cc(Cn3ccnc3)c3ccccc32)cc1.O=C(O)/C=C/C(=O)O [7f],CI50 Leishmania mexicana Promastigotes,[1],3.9 ± 0.09 µg/mL
same,activity against Leishmania mexicana (in words),[1],strong activity
same,IC50,[1],8.4 ± 0.5 µM
same,MIC,"[2]; 24 h at 37° C., MTT",>100 µM
same,CMI or CI80 Aspergillus fumigatus (AF980003),[3]; Alamar Blue,70 ± 3 μM and 32.17 ± 3 μg/ml
Fc1ccc(Cn2ccc3ccc(Cn4ccnc4)cc32)cc1.O=[N+]([O-])O [19n],CMI or CI80 Candida albicans (CA980001),"[2]; 24 h at 37° C., MTT",77 ± 1 μM and 28.36 ± 1 μg/ml
same,MIC,[3]; Alamar Blue,>100 µM
CCn1c(C(c2cccc(Br)c2)n2ccnc2)c(C)c2ccccc21.O=[N+]([O-])O (stereo not shown) [26n],CMI or CI80 Candida albicans (CA980001),[2],60 ± 1 μM and 27 ± 1 μg/mL
CCn1c(C(c2ccc(Br)cc2)n2ccnc2)c(C)c2ccccc21.O=[N+]([O-])O (stereo not shown) [27n],CMI or CI80 Candida albicans (CA980001),[2],57 ± 4 μM and 25 ± 2 μg/mL
CCn1c(C(c2cccc(Cl)c2)n2ccnc2)c(C)c2ccccc21.O=[N+]([O-])O (stereo not shown) [28n],CMI or CI80 Candida albicans (CA980001),[2],58 ± 2 μM and 24 ± 1 μg/mL
CCn1c(C(c2ccc(Cl)cc2)n2ccnc2)c(C)c2ccccc21.O=[N+]([O-])O (stereo not shown) [29n],CMI or CI80 Candida albicans (CA980001),[2],6 ± 1 μM and 2 ± 1 μg/mL
same,activity of inhibition of Candida albicans (in words),[2],significant activity
CCn1c(C(c2ccc(F)cc2)n2ccnc2)c(C)c2ccccc21.O=[N+]([O-])O (stereo not shown) [31n],activity against Leishmania mexicana (in words),[1],most active
same,IC50,[1]; promastigotes,< 0.1 µM
same,CMI or CI80 Candida albicans (CA980001),[2],7 ± 0.3 μM and 2.77 ± 0.3 μg/mL
same,activity of inhibition of Candida albicans (in words),[2],significant activity
same,CMI or CI80 Aspergillus fumigatus (AF980003),[3],16 ± 3 μM and 6 ± 1 μg/mL
same,activity against Aspergillus fumigatus (in words),[3],most active
CCn1cc(C(c2cccc(Cl)c2)n2ccnc2)c2ccccc21.O=[N+]([O-])O (stereo not shown) [40n],CMI or CI80 Candida albicans (CA980001),[2],7 ± 1 μM and 3.1 ± 1 μg/mL
same,activity of inhibition of Candida albicans (in words),[2],significant activity
CCn1cc(C(c2ccc(Cl)cc2)n2ccnc2)c2ccccc21.O=[N+]([O-])O (stereo not shown) [41n],CMI or CI80 Candida albicans (CA980001),[2],19 ± 10 μM and 8 ± 4 μg/mL
CCn1cc(C(c2ccc(Cl)cc2Cl)n2ccnc2)c2ccccc21.O=[N+]([O-])O (stereo not shown) [42n],CMI or CI80 Candida albicans (CA980001),[2],73 ± 3 μM and 32 ± 1 μg/mL
CCn1ccc2cccc(C(c3cccc(Cl)c3)n3ccnc3)c21.O=[N+]([O-])O (stereo not shown) [55n],CMI or CI80 Candida albicans (CA980001),[2],0.039 µg/mL
same,MIC,[2],0.098 µM
same,activity of inhibition of Candida albicans (in words),[2],most active
same,MIC,[3],>100 µM
CCn1ccc2cccc(C(c3ccc(Cl)cc3)n3ccnc3)c21.O=[N+]([O-])O (stereo not shown) [56n],CMI or CI80 Candida albicans (CA980001),[2],0.16 µg/mL
same,MIC,[2],0.4 µM
same,activity of inhibition of Candida albicans (in words),[2],most active
Clc1ccc(Cn2cc(CCCCn3ccnc3)c3ccccc32)cc1.O=[N+]([O-])O [61n],CI50 Leishmania mexicana Promastigotes,[1],20.05 ± 0.3 µg/mL
same,IC50,[1],62 ± 0.3 µM
same,MIC,[2],>100 µM
same,MIC,[3],>100 µM
CCC(c1cn(Cc2ccc(Cl)cc2)c2ccccc12)n1ccnc1.O=[N+]([O-])O (stereo not shown) [64n],CI50 Leishmania mexicana Promastigotes,[1]; promastigotes,2.97 ± 0.02 µg/mL
same,IC50,[1]; promastigotes,7.2 ± 0.07 µM
same,CMI or CI80 Candida albicans (CA980001),[2],36 ± 10 μM and 15 ± 4 μg/mL
same,CMI or CI80 Aspergillus fumigatus (AF980003),[3],57 ± 5 μM and 23.53 μg/mL
same,activity against Aspergillus fumigatus (in words),[3],strong activity
CCCC(c1cn(Cc2ccc(Cl)cc2)c2ccccc12)n1ccnc1.O=C(O)/C=C/C(=O)O (stereo not shown) [65f],CI50 Leishmania mexicana Promastigotes,[1],37.7 ± 4.5 µg/mL
same,IC50,[1],78.7 ± 9.5 µM
same,MIC,[2],>100 µM
same,MIC,[3],>100 µM
CCCCC(c1cn(Cc2ccc(Cl)cc2)c2ccccc12)n1ccnc1.O=C(O)/C=C/C(=O)O (stereo not shown) [66f],CI50 Leishmania mexicana Promastigotes,[1]; promastigotes,2.6 ± 0.03 µg/mL
same,IC50,[1]; promastigotes,5.4 ± 0.06 µM
same,CMI or CI80 Candida albicans (CA980001),[2],7 ± 0.1 μM and 3.46 μg/mL
same,activity of inhibition of Candida albicans (in words),[2],significant activity
same,MIC,[3],>100 µM
CC(c1cn(Cc2ccc(F)cc2)c2ccccc12)n1ccnc1.O=C(O)/C=C/C(=O)O (stereo not shown) [67f],CI50 Leishmania mexicana Promastigotes,[1]; promastigotes,1.57 ± 1.2 µg/mL
same,IC50,[1]; promastigotes,3.6 ± 1.2 µM
same,CMI or CI80 Candida albicans (CA980001),[2],57 ± 2 μM and 25 ± 1 μg/mL
same,CMI or CI80 Aspergillus fumigatus (AF980003),[3],64 ± 2 μM and 28 ± 1 μg/mL
same,activity against Aspergillus fumigatus (in words),[3],strong activity
CC(c1cn(Cc2ccc(Cl)cc2Cl)c2ccccc12)n1ccnc1.O=C(O)/C=C/C(=O)O (stereo not shown) [68f],CI50 Leishmania mexicana Promastigotes,[1]; promastigotes,2.7 ± 0.05 µg/mL
same,IC50,[1]; promastigotes,5.7 ± 0.13 µM
same,CMI or CI80 Candida albicans (CA980001),[2],31 ± 7 μM and 15 ± 3 μg/mL
same,CMI or CI80 Aspergillus fumigatus (AF980003),[3],65 ± 3 μM and 31 ± 1 μg/mL
same,activity against Aspergillus fumigatus (in words),[3],strong activity
CC(c1cn(Cc2ccc(F)cc2F)c2ccccc12)n1ccnc1.O=[N+]([O-])O (stereo not shown) [69n],CMI or CI80 Candida albicans (CA980001),[2],65 ± 6 μM and 26 ± 5 μg/mL
same,CMI or CI80 Aspergillus fumigatus (AF980003),[3],64 ± 5 μM and 21.59 μg/mL
same,activity against Aspergillus fumigatus (in words),[3],strong activity
Cc1c(C(C)n2ccnc2)c2ccccc2n1Cc1ccc(Cl)cc1Cl.O=[N+]([O-])O (stereo not shown) [71n],CMI or CI80 Candida albicans (CA980001),[2],52 ± 3 μM and 23.31 μg/mL
same,CMI or CI80 Aspergillus fumigatus (AF980003),[3],74 ± 3 μM and 28.44 μg/mL
"Fc1ccc(Cn2ccc3cc(-c4nnn[nH]4)ccc32)cc1 [Cpsé 2, 1-(4-Fluorobenzyl)-5-(1H-tetrazol-5-yl)-1H-indole]",activity against Leishmania mexicana (in words),[1],strong activity
same,IC50,[1]; [5],3 µg/mL and 10 µM
same,MIC,[2]; [6],64 ± 1 µM
same,CMI or CI80 Candida albicans (CA980001),"[2]; 24 h at 37° C., MTT, listed as 4",19.54 ± 1 µg/mL
same,MIC,[3]; [7],> 100 µM
"Fc1ccc(Cn2c(Cn3ccnc3)cc3ccccc32)cc1 [Cpsé 3n, 1-(4-Fluorobenzyl)-2-(1H-imidazol-1-ylmethyl)-1H-indole]",activity against Leishmania mexicana (in words),[1],strong activity
same,IC50,[1]; [5],3.4 µg/mL and 8.5 µM
same,MIC,[2]; [6],81 ± 14 µM
same,CMI or CI80 Candida albicans (CA980001),"[2]; 24 h at 37° C., MTT, listed as 9",32.46 ± 14 µg/mL
same,MIC,[3]; [7],21 ± 0.3 µM
same,CMI or CI80 Aspergillus fumigatus (AF980003),[3]; Alamar Blue,8 ± 1.2 µg/mL
same,activity against Aspergillus fumigatus (in words),[3],most active
"Clc1ccc(Cn2cc(Cn3ccnc3)c3cc(Br)ccc32)cc1 [Cpsé 10, 5-Bromo-1-(4-chlorobenzyl)-3-(1H-imidazol-1-ylmethyl)-1H-indole]",activity against Leishmania mexicana (in words),[1],strong activity
same,IC50,[1]; [5],3 µg/mL and 7.5 µM
same,MIC,[2]; [6],> 100 µM
same,MIC,[3]; [7],> 100 µM
"CCn1c(C(c2ccc(F)cc2)n2ccnc2)c(C)c2ccccc21 (stereo not shown) [Cpsé 31, 1-Ethyl-2-[(4-fluorophenyl)(1H-imidazol-1-yl)methyl]-3-methyl-1H-indole]",MIC,[2]; [6],58 ± 4 µM
same,CMI or CI80 Candida albicans (CA980001),"[2]; 24 h at 37° C., MTT, listed as 18",18 ± 1 µg/mL
"CCn1cc(C(c2ccc(F)cc2)n2ccnc2)c2cc(Br)ccc21 (stereo not shown) [Cpsé 46, 5-Bromo-1-ethyl-3-[(4-fluorophenyl)(1H-imidazol-1yl)methyl]-1H-indole]",IC50,[1]; [5],65 µM and 21 µg/mL
same,MIC,[2]; [6],> 100 µM
same,MIC,[3]; [7],> 100 µM
"CCn1ccc2cc(C(c3ccc(Cl)cc3)n3ccnc3)ccc21 (stereo not shown) [Cpsé 53, 5-[(4-Chlorophenyl)(1H-imidazol-1-yl)methyl]-1-ethyl-1H-indole]",IC50,[1]; [5],> 100 µM
same,MIC,[2]; [6],> 100 µM
same,MIC,[3]; [7],> 100 µM
CCC(C)n1ncn(-c2ccc(N3CCN(c4ccc(OCC5COC(Cn6cncn6)(c6ccc(Cl)cc6Cl)O5)cc4)CC3)cc2)c1=O (stereo not shown) [Itraconazole],MIC,[3]; Aspergillus fumigatus,0.71 µM
same,CMI or CI80 Aspergillus fumigatus (AF980003),[3],0.5 µg/mL
N#Cc1ccc(Cn2cc(Cn3ccnc3)c3cc(Br)ccc32)cc1 [compound 13],CMI or CI80 Candida albicans (CA980001),"[2]; 24 h at 37° C., MTT",59 ± 5 μM and 23 ± 2 μg/ml
Fc1ccc(Cn2ccc3c(Cn4ccnc4)cccc32)cc1 [compound 17],CMI or CI80 Candida albicans (CA980001),"[2]; 24 h at 37° C., MTT",54 ± 1 μM and 16.49 ± 1 μg/ml
same,CMI or CI80 Aspergillus fumigatus (AF980003),[3]; Alamar Blue,72 ± 3 μM and 21.99 ± 2 μg/ml
CCn1c(C(c2ccc(Cl)cc2Cl)n2ccnc2)c(C)c2ccccc21 (stereo not shown) [compound 30],CMI or CI80 Candida albicans (CA980001),[2],76 ± 2 μM and 25 ± 1 μg/mL
OC(Cn1cncn1)(Cn1ccc2ccccc21)c1ccc(C(F)(F)F)cc1 (stereo not shown) [compound 79],MIC,[2],<0.001 µM
CC(n1ccc2ccccc21)C(O)(Cn1cncn1)c1ccc(F)cc1F (stereo not shown) [compound 81],MIC,[2],<0.001 µM
Brc1ccc(C(Cn2ccc3ccccc32)n2ccnc2)cc1 (stereo not shown) [compound 84],CI50 Leishmania mexicana Promastigotes,[1],3.6 ± 0.4 µg/mL
same,IC50,[1],8.45 ± 1.02 µM
same,CMI or CI80 Aspergillus fumigatus (AF980003),[3],68 ± 3 μM and 29 ± 1 μg/mL
